According to US20250368638A1, “BICYCLIC INHIBITORS OF NICOTINAMIDE […], COMPOSITIONS AND USES THEREOF” (President and Fellows of Harvard College, priority 2021, published 2025):
Read-outs that look alike come from different tables or passages of the source.

Experiments:
[1] = Metabolic stability in pooled human liver microsomes
Procedure: A master solution was prepared according to the following table.
40 μL of 10 mM NADPH solution was added to each well. The final concentrations of NADPH was 1 mM. The mixture was pre-warmed at 37° C. for 5 minutes. The negative control samples were prepared by replacing NADPH solutions with 40 μL of ultra-pure H2O. The negative control was used to exclude the misleading factor that resulted from instability of chemical itself. Samples with NADPH were prepared in duplicate. Negative controls were prepared in singlet.
The reaction was started with the addition of 4 μL of 200 μM control compound or test compound solutions. […] Samples were centrifuged at 3, 220 g for 40 minutes. Aliquot of 90 μL of the supernatant was mixed with 90 μL of ultra-pure H2O and then used for LC-MS/MS analysis.
For metabolite standard samples: 1 μL of 400 μM working solution was added to 89 μL master solution following by adding 400 μL of cold acetonitrile with internal standard (IS) (100 nM alprazolam, 200 nM Imipramine, 200 nM labetalol and 2 μM ketoprofen). Then 10 μL of 10 mM NADPH solution or ultra-pure H2O was added to the mixture. Samples were centrifuged at 3,220 g for 40 minutes to precipitate protein. Aliquots of 90 μL supernatant diluted by 90 μL of water was used for LC-MS/MS analysis.

[2] = test system: CYP1A2, CYP2A6, CYP2B6, CYP2C8, CYP2C9, CYP2C19, CYP2D6, CYP2E and CYP3A4; experiment: CYP inhibition studies in human liver microsomes; format: in vitro ADME; details: up to 100 μM
Procedure: 1. 1 μL of multiple concentrations of test compound or positive control compound (CYP1A2: furafylline, CYP2A6: tranylcypromine, CYP2B6: ketoconazole, CYP2C8: quercetin, CYP2C9: sulfaphenazole, CYP2C19: N-3-benzylnirvanol, CYP2D6: quinidine, CYP2E1: disulfiram and CYP3A4: ketoconazole) was transferred to the “Compound Plate”. The concentrations of test compounds were 0, 0.6, 2, 6, 20, 60, 2000, 6000 and 20000 μM. The concentrations of positive control compounds were 0, 0.2, 1, 2, 10, 50, 200, 2000 and 10000 μM.
2. The master solution was prepared according to the Table 9A and 9B, and pre-warmed in the water bath at 37° C. for 5 minutes. 179 μL of master solutions were transferred to “Incubation Plate”. In the mixed system, the final concentrations of test compound were 0, 0.003, 0.01, 0.03, 0.1, 0.3, 10, 30 & 100 μM, and the final concentrations of positive control compound were 0, 0.001, 0.005, 0.01, 0.05, 0.25, 1, 10 & 50 μM. All experiments were performed in duplicate.
3. The reaction was started with the addition of 20 μL of 10 mM NADPH solution at the final concentration of 1 mM and carried out at 37° C.
4. […]
5. […] The formation of metabolites was analyzed by using LC-MS/MS. […]
6. […] The formation of metabolites were analyzed by using LC-MS/MS. […] The IC50 shift was calculated for evaluating the mechanism of the inhibition.

[3] = Mouse PK studies of 11 (plasma); format: in vivo, Female C57B16/N mice; details: for T1/2: formulation a (0.2% Tween 80, 10% PEG300); for MRT inf: read-out: MRTInf—obs
Excerpt: (§1) Doses were freshly prepared on the day of dosing. Vehicle compositions of each dose are listed below. […] Adjust pH with 1 N hydrochloric acid to obtain a clear solution or (b) 0.2% Tween 80/20% PEG-300 in water. Adjust pH with 1 N hydrochloric acid to obtain a clear solution
(§2) Then the samples were vortexed for 30 s.

1-MNA = experiment: Plasma 1-MNA in mice after dosing with 11 (PK/PD); format: in vivo, Female C57B16/N mice
Excerpt: as §1, §2

[4] = female, C57B16/N, mouse, plasma, iv, 1 mg/kg, 1 mg/kg IV
[5] = female, C57B16/N, mouse, plasma, po, 10 mg/kg, 10 mg/kg PO, formulation a
[6] = female, C57B16/N, mouse, plasma, po, 50 mg/kg, 50 mg/kg PO, formulation a
[7] = female, C57B16/N, mouse, plasma, po, 50 mg/kg, 50 mg/kg PO, formulation b
[8] = female, C57B16/N, mouse, plasma, po, title: single 100 mg/kg dosage, 50 mg/kg^b, formulation b
[9] = female, C57B16/N, mouse, plasma, 1 mg/kg IV
[10] = 10 mg/kg PO of 11, formulation a

In the case of `C[C@@H]1Cc2cc(C(N)=O)cnc2N1` [Compound 11, (2R)-2-methyl-2,3-dihydro-1H-pyrrolo[2,3-b]pyridine-5-carboxamide], the “Remaining (%) at 60 minutes” value ([1]; Human liver microsomes) is reported as 97.33%, the CLint scaled at 2 μM ([1]; human, microsomes) is reported as less than 0.407 L/h/kg and the half-life at 2 μM ([1]; human, microsomes) is reported as greater than 4.26 h. The microsomal CLint at 2 μM ([1]; human, microsomes) was less than 5.42 µL/min/mg, the “Inhibition of CYP isoforms” value [2] was “did not inhibit” and the AUClast/D ([3]; 1 mg/kg IV) was 464 kg·ng·h/mL/mg. For the same compound, the “AUC—%Extrap—obs” value ([3]; 1 mg/kg IV) was 0.574%, the Cl_obs ([3]; 1 mg/kg IV) was 2.17 L/h/kg and the AUClast/D ([3]; 10 mg/kg PO, formulation a) was 58.2 kg·ng·h/mL/mg. The “AUC—%Extrap—obs” value ([3]; 10 mg/kg PO, formulation a) was 1.90%, the F_last ([3]; 10 mg/kg PO, formulation a) was 12.7% and the T1/2 ([3]; 10 mg/kg PO) was 1.309 h. For the same compound, the AUClast/D ([3]; 50 mg/kg PO, formulation a) was 1020 kg·ng·h/mL/mg, the “AUC—%Extrap—obs” value ([3]; 50 mg/kg PO, formulation a) was 0.258% and the Cmax ([3]; 50 mg/kg PO, formulation a) was 22.5 µg/mL. For the same compound, the T1/2 ([3]; 50 mg/kg PO) was 2.89 h, the AUClast/D ([3]; 50 mg/kg PO, formulation b) was 865 kg·ng·h/mL/mg and the “AUC—%Extrap—obs” value ([3]; 50 mg/kg PO, formulation b) was 7.8%. It also gave an AUC(0-inf) [3, 4] of 0.467 µg·h/mL, an AUC(0-t) [3, 4] of 0.464 µg·h/mL and an MRT inf [3, 4] of 0.427 h. The AUC(0-inf) [3, 5] was 0.593 µg·h/mL, the AUC(0-t) [3, 5] was 0.582 µg·h/mL and the MRT inf [3, 5] was 2.21 h. The AUC(0-inf) [3, 6] was 51.3 µg·h/mL, the AUC(0-t) [3, 6] was 51.1 µg·h/mL and the MRT inf [3, 6] was 2.5 h. It also gave an AUC(0-inf) [3, 7] of 46.7 µg·h/mL, an AUC(0-t) [3, 7] of 43.2 µg·h/mL and an MRT inf [3, 7] of 3.97 h. For the same compound, the AUC(0-t) [3, 8] was 116 µg·h/mL, the Tmax [3, 8] was 0.25 h and the half-life [3, 8] was 3.43 h. For the same compound, the Cmax ([3]; female, C57B16/N, mouse, plasma, po, title: single 100 mg/kg dosage, 50 mg/kg^b, formulation b, read-out: Cmax) was 43.2 µg/mL, the C0 [3, 9] was 2.62 µg/mL and the half-life [3, 9] was 0.148 h. For the same compound, the Tmax ([3]; female, C57B16/N, mouse, plasma, 10 mg/kg PO, formulation a) was 0.5 h, the Cmax ([3]; female, C57B16/N, mouse, plasma, 10 mg/kg PO, formulation a, read-out: Cmax) was 0.412 µg/mL and the Tmax ([3]; female, C57B16/N, mouse, plasma, 50 mg/kg PO, formulation a) was 0.25 h. The half-life ([3]; female, C57B16/N, mouse, plasma, 50 mg/kg PO, formulation b (0.2% Tween 80, 20% PEG300)) was 4.1 h, the Cmax ([3]; female, C57B16/N, mouse, plasma, 50 mg/kg PO, formulation b, read-out: Cmax) was 19 µg/mL and the “AUClast of 1-MNA” value (1-MNA; 1 mg/kg IV of 11) was 1289 ng·h/mL. The “AUClast of 1-MNA” value (1-MNA; [10]) was 943 ng·h/mL, the “Cmax of 1-MNA” value (1-MNA; [10]) was 54.9 ng/mL and the “Tmax of 1-MNA” value (1-MNA; [10]) was 24.0 h. The “AUClast of 1-MNA” value (1-MNA; 50 mg/kg of 11, formulation a) was 653 ng·h/mL, the “Cmax of 1-MNA” value (1-MNA; 50 mg/kg of 11, formulation a) was 54.8 ng/mL and the “Tmax of 1-MNA” value (1-MNA; 50 mg/kg of 11, formulation a) was 24.0 h. The “AUClast of 1-MNA” value (1-MNA; 50 mg/kg of 11, formulation b) was 667 ng·h/mL, the “Cmax of 1-MNA” value (1-MNA; 50 mg/kg of 11, formulation b) was 70.1 ng/mL and the “Tmax of 1-MNA” value (1-MNA; 50 mg/kg of 11, formulation b) was 8.17 h.
